Measured values taken from PubChem BioAssay (NCI).
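Growth conditions: 96-well plates. Treatment: test compound, 48 hours, 5 concentrations. Analysis: linear interpolation between bracketing concentrations; unreached endpoints set to highest concentration. GI50 = concentration required for 50% inhibition of growth. The concentration for full growth arrest is given as TGI.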

Legend:
Test in all cases: NCI anticancer screen, dose series, 48 h
DU-145 prostate = system: DU-145 prostate
RPMI-8226 leukemia = system: RPMI-8226 leukemia
SNB-75 CNS = system: SNB-75 CNS
MCF7 breast = system: MCF7 breast
LOX IMVI melanoma = system: LOX IMVI melanoma
ACHN renal = system: ACHN renal
UACC-62 melanoma = system: UACC-62 melanoma
HCT-15 colon = system: HCT-15 colon
BT-549 breast = system: BT-549 breast
SR leukemia = system: SR leukemia
SK-MEL-2 melanoma = system: SK-MEL-2 melanoma
HL-60(TB) leukemia = system: HL-60(TB) leukemia
786-0 renal = system: 786-0 renal
K-562 leukemia = system: K-562 leukemia
SN12C renal = system: SN12C renal
SF-295 CNS = system: SF-295 CNS
OVCAR-5 ovarian = system: OVCAR-5 ovarian
HCC-2998 colon = system: HCC-2998 colon
SK-MEL-5 melanoma = system: SK-MEL-5 melanoma
HCT-116 colon = system: HCT-116 colon
NCI-H460 lung = system: NCI-H460 lung
SF-539 CNS = system: SF-539 CNS
NCI-H23 lung = system: NCI-H23 lung
SK-MEL-28 melanoma = system: SK-MEL-28 melanoma
T-47D breast = system: T-47D breast
SNB-19 CNS = system: SNB-19 CNS
SF-268 CNS = system: SF-268 CNS

Structure (SMILES): Nc1ccccc1C#C/C=C\C#Cc1ccccc1[N+](=O)[O-]
- GI50 (DU-145 prostate): 7.86 µM
- TGI (DU-145 prostate): 29.2 µM
- GI50 (RPMI-8226 leukemia): 4.58 µM
- TGI (RPMI-8226 leukemia): > 100 µM
- GI50 (SNB-75 CNS): 13.3 µM
- TGI (SNB-75 CNS): 58.3 µM
- GI50 (MCF7 breast): 3.32 µM
- TGI (MCF7 breast): > 100 µM
- GI50 (LOX IMVI melanoma): 2.28 µM
- TGI (LOX IMVI melanoma): 15.7 µM
- GI50 (ACHN renal): 5.3 µM
- TGI (ACHN renal): 19 µM
- GI50 (UACC-62 melanoma): 2.02 µM
- TGI (UACC-62 melanoma): 10.6 µM
- GI50 (HCT-15 colon): 0.718 µM
- TGI (HCT-15 colon): 21.7 µM
- GI50 (BT-549 breast): 4.66 µM
- TGI (BT-549 breast): 22.6 µM
- GI50 (SR leukemia): 0.289 µM
- TGI (SR leukemia): 5.54 µM
- GI50 (SK-MEL-2 melanoma): 12.9 µM
- TGI (SK-MEL-2 melanoma): 34.7 µM
- GI50 (HL-60(TB) leukemia): 1.96 µM
- TGI (HL-60(TB) leukemia): 60.7 µM
- GI50 (786-0 renal): 12.3 µM
- TGI (786-0 renal): 43.2 µM
- GI50 (K-562 leukemia): 0.533 µM
- TGI (K-562 leukemia): 5.93 µM
- GI50 (SN12C renal): 3.18 µM
- TGI (SN12C renal): 13.7 µM
- GI50 (SF-295 CNS): 7.31 µM
- TGI (SF-295 CNS): 85.8 µM
- GI50 (OVCAR-5 ovarian): 17.4 µM
- TGI (OVCAR-5 ovarian): 33.6 µM
- GI50 (HCC-2998 colon): 12 µM
- TGI (HCC-2998 colon): 43.6 µM
- GI50 (SK-MEL-5 melanoma): 3.08 µM
- TGI (SK-MEL-5 melanoma): 18.6 µM
- GI50 (HCT-116 colon): 4.31 µM
- TGI (HCT-116 colon): 36 µM
- GI50 (NCI-H460 lung): 3.59 µM
- TGI (NCI-H460 lung): 83.1 µM
- GI50 (SF-539 CNS): 2.17 µM
- TGI (SF-539 CNS): 10.4 µM
- GI50 (NCI-H23 lung): 12.4 µM
- TGI (NCI-H23 lung): 38.5 µM
- GI50 (SK-MEL-28 melanoma): 15.4 µM
- TGI (SK-MEL-28 melanoma): 34.8 µM
- GI50 (T-47D breast): 34.6 µM
- TGI (T-47D breast): > 100 µM
- GI50 (SNB-19 CNS): 19.8 µM
- TGI (SNB-19 CNS): 96.2 µM
- GI50 (SF-268 CNS): 6.38 µM
- TGI (SF-268 CNS): 27.7 µM
